Experimental data published in PMC7076694, “The Qi Site of Cytochrome b is a Promiscuous Drug Target in Trypanosoma cruzi and Leishmania donovani” (ACS Infectious Diseases, 2020).
Read-outs that look alike come from different tables or passages of the source.

Legend:
T. cruzi epimastigotes [1] = assay: microbe, parasite or virus in culture; assay type: cell-based; conditions: Trypanosoma cruzi
[2] = system: L. donovani promastigotes; assay: microbe, parasite or virus in culture; assay type: cell-based, Leishmania donovani; conditions: for EC50: Leishmania donovani
[3] = system: L. donovani Intramacrophage Amastigotes; assay: L. donovani intramacrophage amastigote drug sensitivity; assay type: cell-based; conditions: Leishmania donovani, read-out: EC50 values, L. donovani Intra-MAC
Experimental: (§1) T. cruzi and L. donovani intracellular amastigote drug sensitivity assays were conducted as previously described.[42],[43]

[4] = system: T. brucei Bloodstream Forms; assay: T. brucei bloodstream form drug sensitivity; assay type: cell-based, Trypanosoma brucei; conditions: read-out: EC50 values, T. brucei BSF
Experimental: EC50 values for test compounds were determined as previously described.[40]

T. brucei Procyclics = assay: T. brucei procyclic drug sensitivity (resazurin); assay type: cell-based, Trypanosoma brucei; conditions: read-out: EC50 values, T. brucei Pro
Experimental: To examine the effects of test compounds on growth, mid log procyclics were seeded into 96-well plates at a cell density of 5 × 10^5 cells mL^–1. Cells were exposed to test compounds over a range of concentrations (2-fold serial dilutions). Following 72 h of incubation in the presence of drug, 500 μM resazurin was added to each well and fluorescence measured after a further 2 h incubation.

HepG2 Cells = assay: HepG2 cell potency; assay type: cell-based; conditions: Homo sapiens
Experimental: Table 1 Compound Efficacy: Potencies of Compounds Were Determined against L. donovani Promastigotes (Pro), L. donovani Intramacrophage Amastigotes (Intra-MAC), T. cruzi Epimastigotes (Epi), T. cruzi Intra-Vero Cells (Intra-Vero), T. brucei Bloodstream Forms (BSF), T. brucei Procyclics (Pro), and HepG2 Cells ^a | column: HepG2

[5] = molecular target: complex III (cytochrome bc1 complex) (Leishmania donovani, UniProt A5HU08); assay: biochemical; assay type: biochemical
[6] = molecular target: complex III (cytochrome bc1 complex) (Trypanosoma cruzi, UniProt Q9T479); assay: Complex III (cytochrome c reduction) assay, T. cruzi lysate; assay type: biochemical; conditions: mitochondria-enriched lysate of epimastigotes
[7] = system: T. cruzi Intra-Vero Cells (intracellular amastigotes); parameters: method as in PMID 26186534; conditions: reported previously ref 14; cited from earlier work
T. cruzi epimastigotes [8] = system: T. cruzi epimastigotes; parameters: method as in PMID 26186534; conditions: reported previously ref 14; read-out: O2 consumption, IC50 values, T. cruzi; cited from earlier work
[9] = system: T. cruzi intracellular amastigotes; parameters: method as in PMID 25740547; conditions: high-throughput screening hit ref 13; read-out: EC50 against T. cruzi intracellular amastigotes; cited from earlier work
T. cruzi epimastigotes [10] = assay: T. cruzi epimastigote respiration (O2 consumption, MitoXpress-Xtra); assay type: cell-based; conditions: Trypanosoma cruzi, read-out: O2 consumption, IC50 values, T. cruzi
Experimental: Compounds were predispensed (150 nL well^–1) into 384-well assay plates using an Echo liquid handler (Labcyte Inc.). […] The negative control for this assay was 0.2% DMSO, equivalent to the final concentration of solvent used in drug dilutions.
Our O2 consumption assay was an adaptation of the assay described by Khare and colleagues.[14] Briefly, assay buffer (250 mM sucrose, 15 mM KCl, 5 mM MgCl2, 1 mM EGTA, 30 mM K2HPO4, pH 7.4; 25 μL) was added to 384-well assay plates and incubated at 37 °C for 10 min. Mid log T. cruzi epimastigotes were harvested (1600g for 10 min at 4 °C), washed three times with buffer A (10 mM Tris-HCl, pH 7.4, 230 mM mannitol, 70 mM sucrose, 0.2 mM EDTA, 0.2% bovine serum albumin, 0.5 mM PMSF), and finally resuspended at 1.5 × 10^8 epimastigotes mL^–1. Following resuspension, 3 × 10^6 epimastigotes (20 μL) were dispensed into each well followed by MitoXpress-Xtra probe (15 μL, Agilent) resulting in a final assay volume of 60 μL. Plates were gently shaken, and 30 μL of HS mineral oil (Agilent) was then added to each well to prevent oxygen exchange between the assay buffer and air. Plates were incubated for 90 min at 37 °C, and fluorescence was then measured using an EnVision MultiMode plate reader (PerkinElmer) using excitation and emission wavelengths of 380 and 650 nm, respectively.
Data were normalized to percent of biological response by using positive (i.e., highest response achieved using a chemical tool compound, RactinomycinA) or negative (i.e., lowest response achieved in the absence of any testing compound, RDMSO) controls by using the following equation: [drawing 3] where Rx is the assay response measured in the presence of test compounds.

[11] = system: T. cruzi Intra-Vero Cells (intracellular amastigotes); assay: T. cruzi intracellular amastigote (Intra-Vero) drug sensitivity; assay type: cell-based; conditions: Trypanosoma cruzi; intracellular amastigotes in Vero cells
Experimental: as §1

[12] = molecular target: T1, complex III (cytochrome bc1 complex) (Leishmania donovani, UniProt A5HU08); assay: biochemical; assay type: biochemical; conditions: read-out: complex III IC50 values, Compound 1 RES1 lysate; lysate of L. donovani Compound 1 RES1 cell line
T1 sequence (A5HU08 1-290): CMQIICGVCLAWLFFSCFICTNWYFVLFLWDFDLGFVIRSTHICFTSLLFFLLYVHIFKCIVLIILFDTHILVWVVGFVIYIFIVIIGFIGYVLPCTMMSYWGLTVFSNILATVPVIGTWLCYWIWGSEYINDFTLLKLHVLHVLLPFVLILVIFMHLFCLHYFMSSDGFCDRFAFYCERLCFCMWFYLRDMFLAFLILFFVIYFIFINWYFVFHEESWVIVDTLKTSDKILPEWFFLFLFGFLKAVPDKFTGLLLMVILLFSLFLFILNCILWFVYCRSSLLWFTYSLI
T1 sequence (A0A3S7WPP0 1-258 partner): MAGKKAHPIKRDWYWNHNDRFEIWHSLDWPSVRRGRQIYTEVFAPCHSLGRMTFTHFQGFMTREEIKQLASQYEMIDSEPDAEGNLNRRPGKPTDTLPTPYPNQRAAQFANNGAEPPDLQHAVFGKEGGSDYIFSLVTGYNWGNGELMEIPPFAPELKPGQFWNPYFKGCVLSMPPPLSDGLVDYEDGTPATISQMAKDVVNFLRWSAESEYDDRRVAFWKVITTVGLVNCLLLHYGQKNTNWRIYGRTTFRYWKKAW

[13] = system: L. donovani intracellular amastigotes within macrophages; assay: microbe, parasite or virus in culture; assay type: cell-based; conditions: Leishmania donovani
[14] = molecular target: T2, complex III (cytochrome bc1 complex) (Leishmania donovani, UniProt A5HU08, F187I); assay: biochemical; assay type: biochemical
T2 sequence (A5HU08 1-290 F187I): T1 sequence (A5HU08 1-290)
T2 sequence (A0A3S7WPP0 1-258 partner): T1 sequence (A0A3S7WPP0 1-258 partner)

[15] = wild-type epimastigotes, read-out: EC50 values, T. cruzi Epi
[16] = wild-type promastigotes, read-out: EC50 values, L. donovani Pro
[17] = Trypanosoma brucei, bloodstream form
[18] = HepG2 cells, read-out: EC50 values, HepG2
[19] = epimastigotes (3 × 10^6), MitoXpress-Xtra probe
[20] = Macrophage, read-out: Leishmania EC50, Compound 1 RES1
[21] = Macrophage, read-out: Leishmania EC50, Compound 2 RES1
[22] = intra-macrophage, WT parasites, read-out: Leishmania EC50, WT

SMILES	EC50 (T. cruzi epimastigotes [1]; [15]) [nM]	EC50 [2, 16] [nM]	EC50 [3] [nM]	EC50 [4, 17] [nM]	EC50 (T. brucei Procyclics; Trypanosoma brucei, procyclics) [nM]	EC50 (HepG2 Cells; [18]) [nM]	IC50 [5] [nM]	IC50 [6] [nM]	EC50 [11] [nM]	IC50 (T. cruzi epimastigotes [10]; [19]) [nM]	EC50 [13, 20] [nM]	EC50 [13, 21] [nM]	EC50 [13, 22] [nM]	other results
CCc1c(C)c(C#N)c2nc3ccccc3n2c1O [GNF7686, reference compound]	710 ± 17	570 ± 51	> 50000	> 50000	521	> 50000	1600 ± 300	550 ± 97	–	–	–	–	–	relative sensitivity of L. donovani promastigotes bearing cytochrome b C222F mutation ([2]; compound 1-selected clone, relative to wild-type): markedly cross-resistant; relative sensitivity of L. donovani promastigotes bearing cytochrome b G37A mutation ([2]; compound 1-selected clones, relative to wild-type): remaining sensitive; EC50 (T. brucei Procyclics; procyclics): 520 ± 13 nM; EC50 [7]: 150 ± 30 nM; IC50 (T. cruzi epimastigotes [8]): 210 nM
Cc1nc2nc(C)c(Cc3ccc(C(C)C)cc3)c(=O)n2[nH]1 [TCMDC-143087]	–	–	–	–	–	–	–	–	–	–	–	–	–	EC50 [9]: 250 nM
CCCCCC[C@H]1C(=O)O[C@H](C)[C@H](NC(=O)c2cccc(NC=O)c2O)C(=O)O[C@@H](C)[C@@H]1OC(=O)CC(C)C [antimycin A, reference compound]	28 ± 1	2 ± 0.1	–	–	–	–	–	–	–	–	–	–	–	EC50 ([4]; Trypanosoma brucei): > 50000 nM; EC50 (T. brucei Procyclics; Trypanosoma brucei): 18 ± 0.5 nM; EC50 (HepG2 Cells; HepG2, read-out: EC50 values, HepG2): < 1000 nM; IC50 (T. cruzi epimastigotes [10]): 200 ± 36 nM
Cc1nn2c(=O)c(Cc3ccc(Cl)cc3)c(C)[nH]c2c1C [compound 1]	210 ± 7	19 ± 1	1500 ± 400	6600 ± 470	97 ± 3	> 50000	44 ± 7	72 ± 16	20 ± 3	150 ± 36	1300	20	100	EC50 (T. cruzi epimastigotes [1]; WT epimastigotes, resistance study, read-out: EC50 against WT T. cruzi (Figure 2)): 120 ± 6 nM; EC50 (T. cruzi epimastigotes [1]; compound 1-resistant epimastigote clone RES I, read-out: EC50 against T. cruzi RES I): 1400 ± 78 nM; EC50 (T. cruzi epimastigotes [1]; compound 1-resistant epimastigote clone RES II, read-out: EC50 against T. cruzi RES II): 2500 ± 62 nM; EC50 (T. cruzi epimastigotes [1]; compound 1-resistant epimastigote clone RES III, read-out: EC50 against T. cruzi RES III): 3800 ± 160 nM; EC50 ([2]; WT promastigotes, resistance study, read-out: EC50 against WT L. donovani (Figure 2)): 21.5 ± 0.5 nM; EC50 ([2]; compound 1-resistant promastigote clone RES I, read-out: EC50 against L. donovani RES I): 1300 ± 14 nM; EC50 ([2]; compound 1-resistant promastigote clone RES II, read-out: EC50 against L. donovani RES II): 1300 ± 96 nM; EC50 ([2]; compound 1-resistant promastigote clone RES III, read-out: EC50 against L. donovani RES III): 790 ± 27 nM; EC50 ([4]; bloodstream form, listed as DDD01542111 (compound 1)): 6700 ± 470 nM; IC50 [12]: 220 ± 51 nM
Cc1cc(C)c2c(N)c(C(=O)N3CCC(C)(C)c4ccccc43)sc2n1 [compound 2]	71 ± 2	24 ± 2	1100 ± 600	8000 ± 970	140 ± 14	> 50000	99 ± 13	100 ± 24	30 ± 10	510 ± 119	30	4400	400	IC50 [14]: 4200 ± 500 nM
CC(=O)Nc1ccc2[nH]c(=O)n([C@H]3CC[C@H](C(C)C)CC3)c(=O)c2c1 [compound 3]	320 ± 12	1640 ± 54	> 50000	8700 ± 470	88 ± 2	7300 ± 60	> 13000	86 ± 39	150 ± 46	190 ± 38	–	–	–	–
